Consider 5 molecules from BindingDB's records for doi:10.7270/Q2K64GGJ (University of Pittsburgh, 2006).

pIC50: −log10 of the molar value.

In this assay the target is T1, Dual specificity protein phosphatase 1 (Homo sapiens, UniProt P28562).
T1 sequence (P28562 whole entry): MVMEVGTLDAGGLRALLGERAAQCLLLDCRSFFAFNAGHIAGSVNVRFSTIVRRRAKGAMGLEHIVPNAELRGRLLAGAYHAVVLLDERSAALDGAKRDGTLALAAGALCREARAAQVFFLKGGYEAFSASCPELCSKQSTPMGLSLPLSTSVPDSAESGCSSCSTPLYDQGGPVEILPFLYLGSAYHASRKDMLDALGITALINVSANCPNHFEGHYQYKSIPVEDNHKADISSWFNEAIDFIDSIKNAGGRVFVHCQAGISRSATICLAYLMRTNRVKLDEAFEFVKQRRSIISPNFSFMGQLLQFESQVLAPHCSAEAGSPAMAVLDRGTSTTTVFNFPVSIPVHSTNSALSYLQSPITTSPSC
Description: DUSP1 dephosphorylation activity inhibition – biochemical, in vitro, dose response, specificity testing, selectivity assay, confirmation (AID 442).

Take `Cc1ccc2c(c1C)NC(C(=O)O)C1CC=CC21` (stereo not given): the pIC50 (in general, the negative decadic logarithm of the IC50, by convention in mol/L) was 4.39.
The figure for `CCn1nc(-c2ccccc2)nc2c(=O)n(C)c(=O)nc1-2` [1-Ethyl-6-methyl-3-phenyl-1H-pyrimido[5,4-e][1,2,4]triazine-5,7-dione] is 6.72; for `CC(C)Cn1c(N)c(C(=O)COC(=O)c2cc(-c3ccco3)nc3ccccc23)c(=O)n(C)c1=O` [2-(2-furanyl)-4-quinolinecarboxylic acid [2-[4-amino-1-methyl-3-(2-methylpropyl)-2,6-dioxo-5-pyrimidinyl]-2-oxoethyl] ester] it is 4.77; for `CCCCC[C@H](O)C=C[C@H]1C=CC(=O)[C@@H]1C/C=C\CCCC(=O)O` [(Z)-7-[(1R,5S)-2-oxidanylidene-5-[(E,3S)-3-oxidanyloct-1-enyl]cyclopent-3-en-1-yl]hept-5-enoic acid] it is 4.63.
On to `COc1ccc(Cn2c(C)nc3c(c2=O)c2nc4ccccc4nc2n3Cc2ccco2)cc1` [MLS000079944], for which the pIC50 is 4.74.
